Results from US11492325B2, “Compounds as inhibitors of sodium channels” (Human BioMolecular Research Institute, priority 2016, dated 2022).
Where two headings read alike, the source gives them in different places.

Experiments:
[1] = system: normal human induced pluripotent stem cell (hiPSC) cardiomyocyte; settings: for WT-EC50 (μM) Prolongation: AP prolongation; for WT-Fold Prolongation: APD; for WT-Fold Prolongation / Cessation of Beating / WT-EAD Dose / WT-Prolongation Dose: normal hiPSC cardiomyocytes
[2] = system: cardiomyocytes derived from hiPSCs from a LQTS3 patient; settings: for LQT-IC50 (uM)-Shortening: APD shortening; for LQT-EC50 (μM) Shortening: AP shortening
[3] = system: cardiomyocytes derived from hiPSCs from a LQTS3 patient; assay: cells; settings: Homo sapiens, Cardiomyocyte; for EC50: read-out: LQT-EC50 (μM) Shortening, LQT-3 cardiomyocytes, AP shortening; for IC50: read-out: LQT-IC50 (uM)-Shortening
[4] = LQT-3 cardiomyocytes, cessation of beating

Row | Compound | WT-Fold Prolongation [1] | Cessation of Beating [1] | LQT-Cessation Dose ([2]; LQT3 cardiomyocytes) | LQT-Fold Shortening ([2]; LQT3 cardiomyocytes) | WT-EAD Dose [1] [µM] | WT-Prolongation Dose [1] | LQT-Shortening Dose ([2]; LQT3 cardiomyocytes) | other results
1 | COCCNC(COc1c(C)ccnc1C)c1ccccc1 (centres unmarked) [Compound 122] |  |  |  |  |  |  |  | WT-EC50 (μM) Prolongation ([1]; WT cardiomyocytes): Does Not Prolong AP; LQT-Fold Shortening ([2]; LQT-3 cardiomyocytes): 1.188; EC50 [3]: 46.6 µM
2 | CCCc1ccccc1OCC(C)N (centres unmarked) [Compound 49, 1-(2-Propylphenoxy)propan-2-amine] | 1.385 | 200 µM | 133 µM | 1.192 |  |  |  | IC50 [3]: 0.85 µM
3 | Cc1cc(C)cc(OC[C@@H](N)C2CC2)c1.Cl [Compound 62] | 1.585 | 200 µM | 200 µM | 1.19 | 66 |  |  | IC50 [3]: 1.03 µM
4 | Cc1cccc(C)c1OCC(N)c1ccc2ccccc2c1 (centres unmarked) [Compound 131] |  |  |  |  |  |  |  | WT-EC50 (μM) Prolongation ([1]; WT cardiomyocytes): Does Not Prolong AP; LQT-Fold Shortening ([2]; LQT-3 cardiomyocytes): 1.309; LQT-Cessation Dose [2, 4]: 133 µM; EC50 [3]: 4.73 µM
5 | Cc1cccc(OCC(C)N)c1.Cl (centres unmarked) [Compound 86] | 1.68 | None | None | 1.418 | 66 |  |  | LQT-IC50 (uM)-Shortening ([2]; LQT3 cardiomyocytes): Shortens
6 | OCCNC(COc1cc(C(F)(F)F)cc(C(F)(F)F)c1)c1ccccc1 (centres unmarked) [Compound 93] | None | 66 µM | 22 µM | 1.5 |  | None |  | 
7 | COCCNC(COc1ccc(C)nc1C)c1ccccc1 (centres unmarked) [Compound 125] |  |  |  |  |  |  |  | WT-EC50 (μM) Prolongation ([1]; WT cardiomyocytes): Does Not Prolong AP; LQT-Fold Shortening ([2]; LQT-3 cardiomyocytes): Does Not Shorten; LQT-Shortening Dose (μM) ([2]; LQT-3 cardiomyocytes): Does Not Shorten; LQT-EC50 (μM) Shortening ([2]; LQT-3 cardiomyocytes): Does Not Shorten
8 | 2-(2,6-dimethylphenoxy)-1-(4-methoxyphenyl)ethanamine [Compound 14] | None | None | None | None |  | None | None | LQT-IC50 (uM)-Shortening ([2]; LQT3 cardiomyocytes): None
9 | Cc1cccc(C)c1OCC(C)NCCc1ccccc1 (centres unmarked) [Compound 44, 1-(2,6-dimethylphenoxy)-N-(2-phenylethyl)propan-2-amine] | 2.698 | 133 µM | 7.4 µM | 1.7 | 22 |  |  | 
10 | NC(COc1ccnc(C(F)(F)F)c1)c1ccccc1 (centres unmarked) [Compound 128] |  |  |  |  |  |  |  | WT-EC50 (μM) Prolongation ([1]; WT cardiomyocytes): Does Not Prolong AP; WT-Cessation Dose (μM) ([1]; WT cardiomyocytes, cessation of beating): No cessation of beating; LQT-Fold Shortening ([2]; LQT-3 cardiomyocytes): 1.226; LQT-EC50 (μM) Shortening ([2]; LQT-3 cardiomyocytes): Shortens
11 | Cc1cc(OCC(N)c2ccccc2)cc(C)n1.Cl (centres unmarked) [Compound 79] | 5.06 | None | None | 1.145 | 200 |  |  | 
12 | CCCNC(COc1cccc(C)c1C)c1ccccc1 (centres unmarked) [Compound 31, 2-(2,3-dimethylphenoxy)-N-propyl-1-phenylethanamine] | None | None | 133 µM | None |  | None | None | 
13 | Cc1cc(C)cc(OCC(N)c2ccc3ccccc3c2)c1 (centres unmarked) [Compound 135] |  |  |  |  |  |  |  | WT-EC50 (μM) Prolongation ([1]; WT cardiomyocytes): Does Not Prolong AP; LQT-Fold Shortening ([2]; LQT-3 cardiomyocytes): 1.667; LQT-Shortening Dose ([2]; LQT-3 cardiomyocytes): 133 µM; LQT-EC50 (μM) Shortening ([2]; LQT-3 cardiomyocytes): Shortens; LQT-Cessation Dose [2, 4]: 200 µM
14 | C[C@H](N)COc1ccccc1Cl [Compound 59] | 2.832 | None | None | None | 133 |  | None | 
15 | COc1ccc(C(N)COc2c(C)cccc2C)cc1 (centres unmarked) [Compound 15, 2-(2,6-dimethylphenoxy)-1-(4-methoxyphenyl)ethanamine] | None | 66 µM | 66 µM | 1.42 |  | None |  | 
16 | CC(COC1CCCCC1)=NOCc1ccccc1 [Compound 45] | None | None | None | 1.37 |  | None |  | 
17 | Cc1cccc2c1OCC(C1CC1)NC2.Cl (centres unmarked) [Compound 74] | 2.633 | None | None | None | 133 |  | None | 
18 | Cc1cccc(C)c1OCC(C)Nc1ccccc1 (centres unmarked) [Compound 43, 1-(2,6-dimethylphenoxy)-N-phenylpropan-2-amine] | None | None | None | None |  | None | None | 
19 | c1ccc(CON=C(COc2ccccn2)c2ccccc2)cc1 [Compound 18] | None | None | None | None |  | None | None | 
20 | Cc1cccc(C)c1OCC(C)O (centres unmarked) [Compound 37] | None | None | None | None |  | None | None | 
21 | CCCNC(C)COc1c(C)cccc1C (centres unmarked) [Compound 38, 1-(2,6-dimethylphenoxy)-N-propylpropan-2-amine] | 4.584 | 200 µM | 200 µM | 1.19 | 66 |  |  | 
